Source: patent publication US20140142106A1, “METHOD FOR TREATING PERITONEAL FIBROSIS” (TAIPEI VETERANS GENERAL HOSPITAL, priority 2012, published 2014)

Experiments:
[1] = system: MGO-induced peritoneal fibrosis; assay: MGO-induced peritoneal fibrosis in rats, effects of CBR ligands (histology, morphometry); type: in vivo, Sprague-Dawley (SD) rats; settings: 1 mg/kg/day in PDF i.p., n=6; for MGO-induced peritoneal thickening: 3 days pretreatment then 10 days with 6 mM MGO, Masson's trichrome
Method: (§1) All animal experiments were performed following the guidelines of the Institutional Committee for Animal Experimentation of Taipei Veterans General Hospital. Five week-old male Sprague-Dawley (SD) rats were purchased from the Laboratory Animal Center of National Yang-Ming University. Peritoneal dialysis fluid (PDF) was prepared according to Hirahara et al. [10;22], containing 2.5% glucose, 100 mmol/L NaCl, 35 mmol/L sodium lactate, 2 mmol/L CaCl2, and 0.7 mmol/L MgCl2, in a pH of 5.0. To test MGO effects, fifty mL/kg of PDF containing 0, 3, 6, 12 mM MGO (Sigma, St. Louis, Mo., USA) were injected intra-peritoneally for ten consecutive days. Dimethyl sulfoxide (DMSO) (Sigma, St. Louis, Mo., USA) was used as the solvent of MGO. For investigation of the effects of CBR ligands, SD rats were pretreated with PDF containing either a selective CB1R antagonist, AM281 (Alexis Biochemicals, Enzo Life Sciences, Farmingdale, N.Y., USA) (1 mg/kg/day) or a selective CB2R agonist, AM1241 (Sigma, St. Louis, Mo., USA) (1 mg/kg/day) for 3 days followed by continuous treatment of PDF containing respective CBR ligands (AM281 or AM1241) and 6 mM MGO for 10 days. Animals receiving PDF containing DMSO vehicle (without MGO) were used as control (n=6/group). All animals were euthanized at the end of experiments by exsanguinations under general anesthesia.
Certain sections of rat peritoneal tissues were frozen at −80° C. for immunofluorescent analysis, while the remainder were fixed in a neutral formalin solution and then embedded in paraffin for histological analysis. For immunofluorescent staining of CBR, rat brain and spleen were used as the positive control of CB1R and CB2R, respectively. For peritoneal thickness quantification, parietal peritoneum sized 1.0×0.5 cm were sampled from four separate peritoneal sites of each rat, including right ventral, left ventral, right lateral, and left lateral abdomen. For each sampling site, the peritoneal thickness was averaged from 15 evenly measured points. Tissue sections were stained with Masson's trichrome to quantify peritoneal fibrosis. The number of mesothelial cells was determined by morphometric method. The hematoxylin and eosin-stained sections were digitalized using an Aperio ScanScope slide scanner (Aperio, San Diego, Calif., USA) at its highest resolution. The mean mesothelial cells per mm surface of peritoneal membrane were counted from 15 points in each peritoneal tissue section from four separate peritoneal areas per animal. The peritoneal angiogenesis was quantified as described by Patel et al.. […] The mean vessels per mm peritoneal membrane were counted from 15 points in each peritoneal tissue section from four separate peritoneal areas per animal.

[2] = system: human peritoneal mesothelial cells (HPMC); assay: PCR analysis of type I collagen in TGF-β1-treated HPMC; type: cell-based; settings: low TGF-β1 concentrations (0.01-0.05 ng/mL), differences not statistically significant
Method: (§2) The MeT-5A human mesothelial cell line, obtained from the American Type Culture Collection (ATCC, Manassas, Va., USA), was cultured in DMEM (Biological Industries, Israel) containing 15% fetal bovine serum (Thermo Scientific, Waltham, Mass., USA), and 1% penicillin/streptomycin/L-glutamine (Biological Industries, Israel). The primary culture of human peritoneal mesothelial cells (HPMC) were prepared as previously described. All patient materials were processed following the ethics regulations of the Institutional Review Board of Taipei Veterans General Hospital.
(§3) To assess the effects of CB1R antagonist on mesothelial cells, we pretreated the MeT-5A cells and RPMC with 5 μM of AM281 for 1 hour, and followed by simultaneous AM281 and TGF-β1 (R&D systems, Minneapolis, Minn., USA) treatment for 5 days. Various TGF-β1 concentrations (0.1 to 1.0 ng/mL) were used. In the CB2R experiment, AM1241 was used instead to test MeT-5A cells and HPMC.
(§4) For mRNA expression analysis of peritoneal tissue TGF-β1, VEGF, and Snail, the rat peritoneum was resected and incubated with trypsin at 37° C. for 30 minutes. The mesothelium was then scratched from peritoneal surface and collected for reverse transcription-polymerase chain reaction (RT-PCR). In the mesothelial cell culture, the mRNA expression of CB1R, CB2R, and type I collagen were also assessed by the PCR analysis. […]

rat peritoneum = assay: Intra-peritoneal PDF containing MGO in rats (peritoneal injury); type: in vivo, Sprague-Dawley (SD) rats; settings: n=6
Method: All animal experiments were performed following the guidelines of the Institutional Committee for Animal Experimentation of Taipei Veterans General Hospital. Five week-old male Sprague-Dawley (SD) rats were purchased from the Laboratory Animal Center of National Yang-Ming University. Peritoneal dialysis fluid (PDF) was prepared according to Hirahara et al. [10;22], containing 2.5% glucose, 100 mmol/L NaCl, 35 mmol/L sodium lactate, 2 mmol/L CaCl2, and 0.7 mmol/L MgCl2, in a pH of 5.0. To test MGO effects, fifty mL/kg of PDF containing 0, 3, 6, 12 mM MGO (Sigma, St. Louis, Mo., USA) were injected intra-peritoneally for ten consecutive days. Dimethyl sulfoxide (DMSO) (Sigma, St. Louis, Mo., USA) was used as the solvent of MGO. […]
Certain sections of rat peritoneal tissues were frozen at −80° C. for immunofluorescent analysis, while the remainder were fixed in a neutral formalin solution and then embedded in paraffin for histological analysis. […] For peritoneal thickness quantification, parietal peritoneum sized 1.0×0.5 cm were sampled from four separate peritoneal sites of each rat, including right ventral, left ventral, right lateral, and left lateral abdomen. For each sampling site, the peritoneal thickness was averaged from 15 evenly measured points. […] The number of mesothelial cells was determined by morphometric method. […]

[3] = humans, long-term basis; cited from earlier work
[4] = system: rat peritoneal mesothelial cells (RPMC); assay: TGF-β1-treated rat peritoneal mesothelial cell (RPMC) culture: morphology; type: cell-based; settings: 5 μM, 1 hour pretreatment, then with TGF-β1 for 5 days
Method: The primary culture of rat peritoneal mesothelial cells (RPMC) were isolated from 5-week-old male SD rats. Trypsin-EDTA (Gibco, Grand Island, N.Y., USA) (1.25%; 100 mL/kg) was injected intra-peritoneally and was then aspirated after a 2-hour dwelling. The aspirate was centrifuged for 10 minutes at 1500 rpm, and was washed with phosphate buffered saline, and then cultured in DMEM containing 10% fetal bovine serum, and 1% penicillin/streptomycin/L-glutamine.
as §3

[5] = system: MeT-5A human mesothelial cell line; assay: TGF-β1-treated MeT-5A mesothelial cells: morphology, immunofluorescent staining; type: cell-based
Method: as §2, §3
For immunofluorescent studies, we grew mesothelial cells in slide flasks (Lab-Tek II; Nalge Nunc. Naperville, Ill., USA).
Cells were observed using a confocal LASER microscope (Leica, Wetzlar, Germany), and fluorescent intensity was analyzed using an image-processing software (AlphaEaseFC 4.0, Alpha Innotech, Santa Clara, Calif., USA). The cytoplasmic fluorescent intensity of individual cell is defined as integrated density value (IDV) of selected cytoplasmic area; the average fluorescent intensity of an image field is defined as average density value (ADV=total IDV/total cytoplasmic area).

TGF-β1-activated PI3K = assay: Western blot of PI3K in MeT-5A cells; type: cell-based, human; settings: p110 catalytic subunit
Method: as §3
Phosphatidyl inositol 3 kinase (PI3K) activity in the MeT-5A cells was assessed by Western blot. Cell lysates were subjected to SDS-PAGE and probed with primary antibodies against the p110 catalytic subunit of PI3K (Upstate Millipore, Billerica, Mass., USA) or β-actin (Amersham Life Science, Buckinghamshire, UK).

[6] = system: TGF-β1, VEGF, and Snail mRNA in rat peritoneal tissue; assay: RT-PCR of rat peritoneal tissue after MGO treatment; type: in vivo, Sprague-Dawley (SD) rats; settings: representative PCR
Method: as §1
as §4, with “analysis. Total RNA was extracted with TRIzol (Invitrogen, Carlsbad, Calif., USA). Contaminated genomic DNA was removed with RNAse-free DNAse (Ambion, Austin, Tex., USA) following the manufacturer's protocol.” for “analysis.”

[7] = system: CB1R and CB2R expression in MeT-5A cells; assay: PCR assessment of CB1R and CB2R expression after TGF-β1 treatment; type: cell-based, human; settings: exogenous TGF-β1, RT-PCR
Method: as §2
For mRNA expression analysis of peritoneal tissue TGF-β1, VEGF, and Snail, the rat peritoneum was resected and incubated with trypsin at 37° C. for 30 minutes. The mesothelium was then scratched from peritoneal surface and collected for reverse transcription-polymerase chain reaction (RT-PCR). In the mesothelial cell culture, the mRNA expression of CB1R, CB2R, and type I collagen were also assessed by the PCR analysis. Total RNA was extracted with TRIzol (Invitrogen, Carlsbad, Calif., USA). Contaminated genomic DNA was removed with RNAse-free DNAse (Ambion, Austin, Tex., USA) following the manufacturer's protocol. First-strand cDNA was synthesized from total RNA with Superscript™ first-strand cDNA synthesis system for RT-PCR (Invitrogen, Carlsbad, Calif., USA) using Oligo(dT) as primers. GAPDH was used as control. […]

[8] = in the presence of TGF-β1, immunofluorescent staining

CN1CCCCC1Cn1cc(C(=O)c2cc([N+](=O)[O-])ccc2I)c2ccccc21 (stereo not drawn) [AM1241, (2-iodo-5-nitrophenyl)-[1-[(1-methylpiperidin-2-yl)methyl]indol-3-yl]methanone]
MGO-induced peritoneal thickening [1]: significantly attenuated | type I collagen synthesis [2]: tended to suppress

CC(=O)C=O [MGO, methylglyoxal]
peritoneal thickness (rat peritoneum; PDF containing 0, 3, 6, 12 mM MGO i.p. for ten consecutive days): significant increase | surface mesothelial cells (rat peritoneum; higher concentration of MGO (6-12 mM), i.p. ten days): prominent loss

C=C(C)[C@@H]1CCC(C)=C[C@H]1c1c(O)cc(CCCCC)cc1O [cannabidiol]
tolerability on long-term administration [3]: well-tolerated without adverse effects

Cc1c(C(=O)NN2CCOCC2)nn(-c2ccc(Cl)cc2Cl)c1-c1ccc(I)cc1 [AM281, N-(morpholin-1-yl)-1-(2,4-dichlorophenyl)-5-(4-iodophenyl)-4-methyl-1H-pyrazole-3-carboxamide]
TGF-β1-induced cell elongation [4]: reduces | TGF-β1-induced cell elongation ([5]; 5 μM, 1 hour pretreatment, then with TGF-β1 for 5 days): reduces | expression of E-cadherin [5, 8]: preserving | expression of cytokeratin 8/18 [5, 8]: preserving | type I collagen synthesis [5, 8]: inhibited | TGF-β1-activated PI3K (TGF-β1-activated PI3K): suppressed | MGO-induced mesothelial cell detachment ([1]; 6 mM MGO 10 days): attenuated | MGO-induced angiogenesis ([1]; 6 mM MGO 10 days, α-SMA staining): attenuated | MGO-induced peritoneal thickening [1]: significantly attenuated | up-regulated Snail after MGO treatment [6]: attenuated | up-regulated TGF-β1 after MGO treatment [6]: attenuated | up-regulated VEGF after MGO treatment [6]: attenuated

TGF-β1: exogenous TGF-β1 (R&D systems) used to treat mesothelial cells
CBR levels (CB1R, CB2R mRNA) [7]: no significant effect
